These results are taken from US20070043024A1, “Azacyclic compounds as inhibitors of sensory neurone specific channels” (priority 2003, published 2007).

This experiment deals with T1, human Nav1.8 (hNav1.8) ion channel (Homo sapiens, UniProt Q9Y5Y9).
T1 construct: expressed in transfected cells
Description: Inhibition of human Nav1.8 stably expressed in SH-SY-5Y cells (membrane potential dye fluorescence assay). Type of experiment: cell-based. The following applies: SH-SY-5Y hNav1.8 cells, inhibition of membrane depolarisation, FLIPR membrane potential dye, 250 nM TTX, test concentration range 100 μM-0.05 μM. As for the experimental part: Inhibition of Human Nav1.8 Stably Expressed in SH-SY-5Y Cells
A SH-SY-5Y neuroblastoma cell line stably expressing the human […] (hNav1.8) ion channel was constructed. This cell line has been used to develop a medium to high throughput assay for determining the ability of test compounds to inhibit membrane depolarisation mediated via the hNav1.8 channel.
SH-SY-5Y hNav1.8 are grown in adherent monolayer culture using 50:50 Ham's F-12/EMEM tissue culture medium supplemented with 15% (v/v) foetal bovine serum; 2 mM L-glutamine, 1% NEAA and 600 μg·ml^−1 Geneticin sulphate. Cells are removed from the tissue culture flask using trypsin/EDTA and re-plated into black walled, clear bottom 96-well assay plates at 50,000 cells·well^−1 24 hours prior to assay.
On the day of assay the cell assay plates are washed to remove cell culture medium using a sodium free assay buffer (145 mM tetramethyl ammonium chloride; 2 mM calcium chloride; 0.8 mM magnesium chloride hexahydrate; 10 mM HEPES; 10 mM glucose; 5 mM potassium chloride, pH 7.4). Fluorescent membrane potential dye solution (FLIPR™ membrane potential dye, Molecular Devices Corporation), containing 10 μM of a pyrethroid to prevent channel inactivation and 250 nM tetrodotoxin (TTX) to reduce interference from TTX-sensitive sodium channels present in the cell line. Test compound, initially dissolved in dimethyl sulfoxide but further diluted in sodium free buffer, is added to achieve the final test concentration range of 100 μM-0.05 μM.
Cell plates are incubated for 30 minutes at room temperature to allow equilibration of dye and test compound. Plates are then transferred to a fluorescence plate reader for fluorescence measurement using an excitation wavelength of 530 nm whilst measuring fluorescence emission at 565 nm. Baseline fluorescence levels are first determined before the addition of a sodium containing buffer (220 mM sodium chloride; 2 mM calcium chloride; 0.8 mM magnesium chloride hexahydrate; […]; 10 mM glucose; 5 mM potassium chloride. pH 7.4) to cause membrane depolarisation in those cells where channel block has not been effected (final sodium concentration=72.5 mM). Membrane depolarisation is registered by an increase in fluorescence emission at 565 nm.
The change in fluorescence seen in each test well upon the addition of sodium containing buffer is calculated relative to the baseline fluorescence for that well. This figure is then used for calculating the IC50 for each test compound.

[1] abbreviates: Table 2 (compound numbers of the list in the description), read-out: IC50.

Where two headings read alike, the source gives them in different places.

T1 sequence (Q9Y5Y9 whole entry): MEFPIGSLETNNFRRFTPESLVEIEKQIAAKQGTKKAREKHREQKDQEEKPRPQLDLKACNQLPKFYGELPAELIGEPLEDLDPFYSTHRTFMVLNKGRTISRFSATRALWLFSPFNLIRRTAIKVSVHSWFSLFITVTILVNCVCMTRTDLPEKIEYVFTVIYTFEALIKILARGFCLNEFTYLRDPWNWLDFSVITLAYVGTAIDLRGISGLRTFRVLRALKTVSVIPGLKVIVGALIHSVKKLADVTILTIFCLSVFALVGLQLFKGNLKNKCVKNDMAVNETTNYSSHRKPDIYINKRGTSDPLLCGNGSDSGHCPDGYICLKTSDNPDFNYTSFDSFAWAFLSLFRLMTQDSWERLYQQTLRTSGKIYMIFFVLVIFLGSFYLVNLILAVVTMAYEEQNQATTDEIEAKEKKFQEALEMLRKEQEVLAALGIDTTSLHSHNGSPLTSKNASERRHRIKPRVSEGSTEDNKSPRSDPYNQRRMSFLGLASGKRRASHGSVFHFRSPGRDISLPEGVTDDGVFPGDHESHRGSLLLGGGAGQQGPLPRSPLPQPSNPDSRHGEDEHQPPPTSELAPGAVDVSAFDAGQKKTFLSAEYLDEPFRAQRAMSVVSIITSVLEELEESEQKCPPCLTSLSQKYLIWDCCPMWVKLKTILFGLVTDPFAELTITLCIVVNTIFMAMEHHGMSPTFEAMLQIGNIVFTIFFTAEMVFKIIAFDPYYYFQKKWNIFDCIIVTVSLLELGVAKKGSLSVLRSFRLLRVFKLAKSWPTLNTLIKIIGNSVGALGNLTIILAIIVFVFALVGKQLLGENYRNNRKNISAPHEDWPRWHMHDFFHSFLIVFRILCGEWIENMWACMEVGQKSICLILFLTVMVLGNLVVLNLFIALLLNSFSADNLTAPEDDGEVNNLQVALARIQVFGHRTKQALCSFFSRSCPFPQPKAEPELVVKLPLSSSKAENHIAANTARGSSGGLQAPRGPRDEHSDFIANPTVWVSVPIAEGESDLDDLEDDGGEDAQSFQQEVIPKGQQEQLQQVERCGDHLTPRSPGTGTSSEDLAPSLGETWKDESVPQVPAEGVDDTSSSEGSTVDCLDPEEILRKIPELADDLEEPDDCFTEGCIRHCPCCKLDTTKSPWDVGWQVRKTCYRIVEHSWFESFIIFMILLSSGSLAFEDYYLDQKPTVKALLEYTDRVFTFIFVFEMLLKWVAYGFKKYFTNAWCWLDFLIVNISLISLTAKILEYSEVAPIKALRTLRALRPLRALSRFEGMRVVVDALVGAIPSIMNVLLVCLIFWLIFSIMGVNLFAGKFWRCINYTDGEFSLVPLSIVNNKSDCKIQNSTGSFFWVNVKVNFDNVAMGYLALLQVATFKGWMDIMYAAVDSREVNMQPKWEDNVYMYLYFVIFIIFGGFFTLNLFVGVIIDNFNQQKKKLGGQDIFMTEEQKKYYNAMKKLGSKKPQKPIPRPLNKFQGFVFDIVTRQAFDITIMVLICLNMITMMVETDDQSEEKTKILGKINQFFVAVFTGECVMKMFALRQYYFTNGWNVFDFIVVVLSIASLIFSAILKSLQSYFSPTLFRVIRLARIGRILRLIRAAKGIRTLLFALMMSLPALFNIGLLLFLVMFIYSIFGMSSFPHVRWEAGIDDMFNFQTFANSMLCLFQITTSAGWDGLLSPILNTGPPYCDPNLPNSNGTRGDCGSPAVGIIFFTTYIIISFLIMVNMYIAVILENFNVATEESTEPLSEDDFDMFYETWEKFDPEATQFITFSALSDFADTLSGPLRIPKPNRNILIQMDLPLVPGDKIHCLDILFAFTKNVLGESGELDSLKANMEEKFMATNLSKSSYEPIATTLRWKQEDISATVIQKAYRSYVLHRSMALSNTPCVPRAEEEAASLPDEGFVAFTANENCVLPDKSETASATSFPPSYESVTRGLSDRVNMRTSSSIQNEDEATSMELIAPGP

As usually defined, the IC50 is the concentration that gives 50% inhibition. On to `COc1ccc(C2COc3ccccc3N2C(=O)CN2CCc3cccc(OC)c3C2)cc1OC` (stereo not drawn) [Compound 216, 1-[3-(3,4-Dimethoxy-phenyl)-2,3-dihydro-benzo[1,4]oxazin-4-yl]-2-(8-methoxy-3,4-dihydro-1H-isoquinolin-2-yl)-ethanone], for which the half-maximal inhibitory concentration (IC50) under setting [1] worked out at 4310 nM.

As to `COc1cccc2c1CN(C(C)C(=O)N1c3ccccc3Oc3ccccc31)CC2` (stereo not drawn) [Compound 200, 2-(8-Methoxy-3,4-dihydro-1H-isoquinolin-2-yl)-1-phenoxazin-10-yl-propan-1-one], under setting [1], the IC50 came out at 1660 nM. For the compound `COc1ccc(N(C(=O)CN2CCc3cccc(OC)c3C2)c2ccc(OC)cc2)cc1` [Compound 182, 2-(8-Methoxy-3,4-dihydro-1H-isoquinolin-2-yl)-N,N-bis-(4-methoxy-phenyl)-acetamide], under setting [1], the IC50 stood at 2140 nM. The same measure, in the same setting: the result for `COc1cccc2c1CN(CC(=O)N1CC(c3nnc(C)o3)Oc3ccccc31)CC2` (stereo not drawn) [Compound 187, 2-(8-Methoxy-3,4-dihydro-1H-isoquinolin-2-yl)-1-[2-(5-methyl-[1,3,4]oxadiazol-2-yl)-2,3-dihydro-benzo[1,4]oxazin-4-yl]-ethanone] reads 19100 nM; that for `COc1cccc2c1CN(CC(=O)N1c3ccccc3OCC1c1ccc(NC(C)=O)cc1)CC2` (stereo not drawn) [Compound 214, N-(4-{4-[2-(8-Methoxy-3,4-dihydro-1H-isoquinolin-2-yl)-acetyl]-3,4-dihydro-2H-benzo[1,4]oxazin-3-yl}-phenyl)-acetamide], 6360 nM. `O=C(CN1CCc2cccc(O)c2C1)N(Cc1ccccc1)c1ccccc1` [Example 25, N-Benzyl-2-(8-hydroxy-3,4-dihydro-1H-isoquinolin-2-yl)-N-phenyl-acetamide]: the IC50 (IC50, Table 1) was determined as 1070 nM. `COc1cccc2c1CN(CC(=O)NC(c1ccccc1)c1ccccn1)CC2` (stereo not drawn) [Example 69, 2-(8-methoxy-3,4-dihydro-1H-isoquinolin-2-yl)-N-(phenyl-pyridin-2-yl-methyl)-acetamide]: under “Table 1, read-out: IC50”, the IC50 was 8960 nM. For the compound `O=C(CN1CCc2ccccc2C1)NCC(c1ccccc1)c1ccccc1` [Example 60, 2-(3,4-Dihydro-1H-isoquinolin-2-yl)-N-(2,2-diphenyl-ethyl)-acetamide], the IC50 (Table 1, read-out: IC50) turned out to be 950 nM. Take `COc1cccc2c1CN(CC(=O)NNC(=O)N(c1ccccc1)c1ccccc1)CC2` [Compound 186, 1-[(8-Methoxy-3,4-dihydro-1H-isoquinolin-2-yl)-acetyl]-4,4-diphenylsemicarbazide]: the IC50 under setting [1] worked out at 29100 nM. As for `COc1cccc2c1CN(CC(=O)N1c3ccccc3OCC1C(C)(C)C)CC2` (stereo not drawn) [Compound 206, 1-(3-tert-Butyl-2,3-dihydro-benzo[1,4]oxazin-4-yl)-2-(8-methoxy-3,4-dihydro-1H-isoquinolin-2-yl)-ethanone], the IC50 under setting [1] worked out at 1620 nM. For the compound `CS(=O)(=O)Oc1cccc2c1CN(CC(=O)N1c3ccccc3Oc3ccccc31)CC2` [Compound 191, Methanesulfonic acid 2-(2-oxo-2-phenoxazin-10-yl-ethyl)-1,2,3,4-tetrahydro-isoquinolin-8-yl ester], the IC50 under setting [1] was 1270 nM. With `COc1cccc2c1CN(CCCC(c1ccc(F)cc1)c1ccc(F)cc1)CC2` [Example 10, 2-[4,4-Bis-(4-fluoro-phenyl)-butyl]-8-methoxy-1,2,3,4-tetrahydro-isoquinoline], under “Table 1, read-out: IC50”, the half-inhibitory concentration (IC50) was determined as 480 nM. For the compound `CS(=O)(=O)Nc1cccc2c1CN(CC(=O)N1c3ccccc3Oc3ccccc31)CC2` [Compound 198, N-[2-(2-Oxo-2-phenoxazin-10-yl-ethyl)-1,2,3,4-tetrahydro-isoquinolin-8-yl]-methanesulfonamide], under setting [1], the IC50 came to 1830 nM. Regarding `COc1cccc2c1CN(C(=O)CNC(c1ccccc1)c1ccccc1)CC2` [Example 38, 2-(Benzhydryl-amino)-1-(8-methoxy-3,4-dihydro-1H-isoquinoline-2-yl)-ethanone], the IC50 (Table 1, read-out: IC50) came out at 1390 nM. `O=C(CN1CCc2ccccc2C1)N(Cc1ccccc1)c1ccccc1` [Example 17, N-Benzyl-2-(3,4-dihydro-1H-isoquinolin-2-yl)-N-phenyl-acetamide]: where the note is “Table 1, read-out: IC50”, the IC50 was found to be 1250 nM. Still for that read-out and setting: under `c1ccc(CN(CCN2CCc3ccccc3C2)Cc2ccccc2)cc1` [Example 47, Dibenzyl-[2-(3,4-dihydro-1H-isoquinolin-2-yl)-ethyl]-amine] stands 470 nM.

In the case of `COc1ccc(N(C(=O)CN2CCc3cccc(O)c3C2)c2ccc(OC)cc2)cc1` [Compound 183, 2-(8-Hydroxy-3,4-dihydro-1H-isoquinolin-2-yl)-N,N-bis-(4-methoxy-phenyl)-acetamide], under setting [1], the IC50 amounted to 2260 nM. Turning to `COc1cccc2c1CN(CCC(=O)N1c3ccccc3Oc3ccccc31)CC2` [Compound 189, 3-(8-Methoxy-3,4-dihydro-1H-isoquinolin-2-yl)-1-phenoxazin-10-yl-propan-1-one], the IC50 under setting [1] was found to be 510 nM.

Consider `Nc1cccc2c1CN(CC(=O)NCCC(c1ccccc1)c1ccccc1)C2` [Compound 99, 2-(4-Amino-1,3-dihydro-isoindol-2-yl)-N-(3,3-diphenyl-propyl)-acetamide], for which the IC50 under setting [1] was found to be 2430 nM.

On to `O=C(CN1CCc2cccc(O)c2C1)N1c2ccccc2Sc2ccc(Cl)cc21` [Compound 141, 1-(2-Chloro-phenothiazin-10-yl)-2-(8-hydroxy-3,4-dihydro-1H-isoquinolin-2-yl)-ethanone], for which, under setting [1], the IC50 was 1850 nM. Take `CC(CN1CCc2cccc(O)c2C1)OCc1ccccc1` (stereo not drawn) [Example 48, 2-(2-Benzyloxy-propyl)-1,2,3,4-tetrahydro-isoquinolin-8-ol]: the concentration for half-maximal inhibition (IC50) (Table 1, read-out: IC50) came to 4840 nM. For `Cc1cc2cc(Cl)ccc2n1CCCNC(=O)CN1CCc2cccc(O)c2C1` [Compound 131, N-[3-(5-Chloro-2-methyl-indol-1-yl)-propyl]-2-(8-hydroxy-3,4-dihydro-1H-isoquinolin-2-yl)-acetamide], the IC50 under setting [1] turned out to be 3610 nM.

As to `COc1ccc2c(c1)CCCN(CC(=O)N(Cc1ccccc1)Cc1ccccc1)C2` [Compound 86, N,N-dibenzyl-2-(7-methoxy-1,3,4,5-tetrahydro-benzo[c]azepin-2-yl)-acetamide], the IC50 under setting [1] amounted to 490 nM. As for `COc1cc2c(cc1OC)CN(CC(=O)N1c3ccccc3Sc3ccccc31)CC2` [Compound 152, 2-(6,7-Dimethoxy-3,4-dihydro-1H-isoquinolin-2-yl)-1-phenothiazin-10-yl-ethanone], the IC50 under setting [1] was 3030 nM. For `Oc1cccc2c1CN(CCN(Cc1ccccc1)Cc1ccccc1)CC2` [Example 8], the concentration for half-maximal inhibition (IC50) (Table 1, read-out: IC50) is 410 nM. Still for that read-out and setting: under “3,4-Dihydro-1H-isoquinoline-2-carbothioic acid benzhydryl-amide [Example 53]” stands 4060 nM; under `COc1ccc2c(c1)CN(CCNCCC(c1ccccc1)c1ccccc1)CC2` [Example 89, (3,3-Diphenyl-propyl)-[2-(7-methoxy-3,4-dihydro-1H-isoquinolin-2-yl)-ethyl]amine], 490 nM. With `COc1ccc2c(c1)CN(CC(=O)N(Cc1ccccc1)Cc1ccccc1)CC2` [Example 87, N,N-Dibenzyl-2-(7-methoxy-3,4-dihydro-1H-isoquinolin-2-yl)-acetamide], the IC50 (Table 1, read-out: IC50) came to 1100 nM.

For `O=C(CN1CCc2cccnc2C1)N(c1ccccc1)c1ccccc1` [Compound 181, 2-(5,8-Dihydro-6H-[1,7]naphthyridin-7-yl)-N,N-diphenyl-acetamide], the IC50 under setting [1] amounted to 20400 nM.

As to `COc1cc2c(cc1OC)CN(CCNC(=S)NC(c1ccccc1)c1ccccc1)CC2` [Compound 134, 1-Benzhydryl-3-[2-(6,7-dimethoxy-3,4-dihydro-1H-isoquinolin-2-yl)-ethyl]-thiourea], the 50% inhibitory concentration (IC50) under setting [1] was 770 nM. As for `Nc1cccc2c1CN(CC(=O)NCC(c1ccccc1)c1ccccc1)CC2` [Compound 111, 2-(8-Amino-3,4-dihydro-1H-isoquinolin-2-yl)-N-(2,2-diphenyl-ethyl)-acetamide], under setting [1], the IC50 was found to be 3880 nM. Regarding `COc1cccc2c1CN(CC(=O)N1c3ccccc3OCC1C)CC2` (stereo not drawn) [Compound 205, 2-(8-Methoxy-3,4-dihydro-1H-isoquinolin-2-yl)-1-(3-methyl-2,3-dihydro-benzo[1,4]oxazin-4-yl)-ethanone], the IC50 under setting [1] is 4630 nM. Take `CCOc1cccc2c1CN(CC(=O)NCCCC(c1ccccc1)c1ccccc1)CC2` [Compound 92, N-(4,4-Diphenyl-butyl)-2-(8-ethoxy-3,4-dihydro-1H-isoquinolin-2-yl)-acetamide]: the IC50 under setting [1] is 4820 nM.
